Source: patent US8617872B2, “Compositions for culturing spirochetes” (priority 2000, dated 2013)

What was measured:
Type in all cases: cell-based
[1] = tested on: A. lwoffii; assay: Antibiotic susceptibility test (MICROSCAN or disc diffusion), control organism A. lwoffii; details: total isolates 1
[2] = tested on: E. coli; assay: Antibiotic susceptibility test (MICROSCAN or disc diffusion), control organism E. coli; details: total isolates 1
[3] = tested on: Pseudomonas; assay: Antibiotic susceptibility test (MICROSCAN or disc diffusion), control organism Pseudomonas; details: total isolates 1
[4] = tested on: Borrelia; assay: Antibiotic susceptibility test (MICROSCAN or disc diffusion) of patient samples positive for Borrelia; details: total isolates 519
From the text: (§1) This example describes the preparation of a pellet used for antimicrobial susceptibility testing of a culture sample. The procedure begins with a culture (e.g., prepared in the manner described in Example 2), where serum from a patient is inoculated in GSI-1 media and allowed to grow. In order to form pellet, an aliquot of this culture sample is placed in a microcentrifuge tube along with 10% SDS solution, and centrifuged at 14,000 g to disrupt the spirochetes and maximize the number of available eptiopic sites. The disrupted spirochetes were then cultured in an alternative growth medium made up of one part GSI-1 medium, one part 6.5% lactalbumin hydrolysate, one part 2% brain heart infusion, one part 10% pluronic fluid, and one part of the isolated (disrupted) spirochetes. This inoculated alternative growth medium was then allowed to incubate in the closed micro centrifuge tube until a distinctive pellet was observed (typically 7-14 days).
(§2) Following the observation of pellet formation, the tube was vortexed and incubated at 35° C. until a MacFarlane standard of between 8 to 12% turbidity was achieved. MICROSCAN antibiotic susceptibility microtiter plates were then inoculated with (e.g., 110 μl of) inoculum and allowed to incubate at 35° C. for 16-20 hours. The microtiter plates were then scanned for growth and respective sensitivity reaction (both the control well and the growth well). Table 2 below lists the various antimicrobials tested with this sample and whether growth of the organism was inhibited (susceptible) or whether the growth of the organism was not inhibited (resistant).
(§3) This Example describes the results for susceptibility tests that were performed on a large number of patient samples positive for either Borrelia or Leptospira. […] The results presented in Table 3 reveal the varied response of different types of spirochetes to different antibiotics.

[5] = tested on: Leptospira; assay: Susceptibility testing of Leptospira isolated from a patient with symptoms of multiple sclerosis; details: for Antibiotic Susceptibility Results, SERUM: Leptospira culture from serum of multiple sclerosis patient; for Antibiotic Susceptibility Results, URINE: Leptospira culture from urine of multiple sclerosis patient
Description: This example describes the preparation of a pellet used for antimicrobial susceptibility testing of a culture sample. […] In order to form pellet, an aliquot of this culture sample is placed in a microcentrifuge tube along with 10% SDS solution, and centrifuged at 14,000 g to disrupt the spirochetes and maximize the number of available eptiopic sites. […] This inoculated alternative growth medium was then allowed to incubate in the closed micro centrifuge tube until a distinctive pellet was observed (typically 7-14 days).
MICROSCAN antibiotic susceptibility microtiter plates were then inoculated with (e.g., 110 μl of) inoculum and allowed to incubate at 35° C. for 16-20 hours. The microtiter plates were then scanned for growth and respective sensitivity reaction (both the control well and the growth well).

[6] = tested on: Leptospira; assay: Antibiotic susceptibility test (MICROSCAN or disc diffusion) of patient samples positive for Leptospira; details: total isolates 276
From the text: as §1, §2, §3

[7] = tested on: Tatumella; assay: Antibiotic susceptibility test (MICROSCAN or disc diffusion), control organism Tatumella; details: total isolates 2
From the text: as §1, §2, §3

[8] = tested on: Leptospira; assay: Susceptibility testing of Leptospira isolated from a patient with symptoms of rheumatoid arthritis; details: for Antibiotic Susceptibility Results, SERUM: Leptospira culture from serum of rheumatoid arthritis patient; for Antibiotic Susceptibility Results, URINE: Leptospira culture from urine of rheumatoid arthritis patient
From the text: as §1
Following the observation of pellet formation, the tube was vortexed and incubated at 35° C. until a MacFarlane standard of between 8 to 12% turbidity was achieved. MICROSCAN antibiotic susceptibility microtiter plates were then inoculated with (e.g., 110 μl of) inoculum and allowed to incubate at 35° C. for 16-20 hours. The microtiter plates were then scanned for growth and respective sensitivity reaction (both the control well and the growth well).
This Example describes the diagnosis and treatment of a human patient with symptoms of rheumatoid arthritis. In particular, serum and urine samples from this patient were initially cultured on GSI-1 (e.g., as described in Example 2), and screened for the presence of spirochetes (e.g., as described in Example 3). […] These cultures were then used to produce pellets for antimicrobial susceptibility testing (e.g., as described in Example 6). The antimicrobial susceptibility tests were then carried out on each sample (e.g., as described in Example 7) with the antimicrobials listed below in Table 5.

[9] = tested on: Treponema isolate; assay: Antimicrobial susceptibility test (MICROSCAN plates) of a patient's Treponema isolate; details: Treponema infected patient's isolate; MICROSCAN plates, 35° C., 16-20 hours
Description: For susceptibility testing, the organisms harvested could be assayed using any suitable susceptibility assay (See, Example 7). In some embodiments of the present invention, MICROSCAN antibiotic susceptibility plates were inoculated and incubated. Following incubations, plates were scanned for growth and respective sensitivity reaction. […] For the results to be considered reliable, the no growth of organisms was accepted in the negative control well, while the positive control well had to have sufficient growth to be read. In some embodiments of the present invention, to confirm the presence or absence of growing spirochetes in the growth well, aliquots from the growth well were reinoculated with fresh growth media and after an incubation time (e.g., 7-10 days) the presence of the organisms was confirmed (e.g., by phase contrast microscopy or direct fluorescent antibody staining).
as §1
This example describes an antimicrobial susceptibility test performed for a human patient. The patient had previously been testing using GSI-1 medium (e.g., as described in Example 2) for the presence of any spirochetes. […] This culture sample was then transferred to a microcentrifuge tube, and a pellet for antimicrobial susceptibility testing was prepared as described in Example 6.
as §2

[10] = tested on: Y. entero gp.; assay: Antibiotic susceptibility test (MICROSCAN or disc diffusion), control organism Y. entero gp.; details: total isolates 1

Row | Compound | Antibiotic Susceptibility Test Results, A. lwoffii [1] [%] | Antibiotic Susceptibility Test Results, E. coli [2] [%] | Antibiotic Susceptibility Test Results, Pseudomonas [3] [%] | Antibiotic Susceptibility Test Results, Borrelia [4] [%] | Antibiotic Susceptibility Results, SERUM [5] | Antibiotic Susceptibility Results, URINE [5] | Antibiotic Susceptibility Test Results, Leptospira [6] [%] | Antibiotic Susceptibility Test Results, Tatumella [7] [%] | Antibiotic Susceptibility Results, SERUM [8] | Antibiotic Susceptibility Results, URINE [8] | RESULT (antibiotic susceptibility) [9] | Antibiotic Susceptibility Test Results, Y. entero gp. [10] [%]
1 | O=C(O)c1cn(C2CC2)c2cc(N3CCNCC3)c(F)cc2c1=O [Ciprofloxacin] | 100 | 100 | 100 | 84 | Susceptible | Susceptible | 78 | 100 | Susceptible | Susceptible | Resistant | 100
2 | Gentamicin | 100 | 100 | 100 | 89 | Resistant | Resistant | 86 | 100 | Resistant | Resistant | Resistant | 100
3 | CC(C)(O/N=C(\C(=O)N[C@@H]1C(=O)N2C(C(=O)[O-])=C(C[n+]3ccccc3)CS[C@H]12)c1csc(N)n1)C(=O)O [Ceftazidime] | 100 | 100 | 100 | 36 | Resistant | Resistant | 41 | 0 | Resistant | Resistant | – | 100
4 | NCC[C@H](O)C(=O)N[C@@H]1C[C@H](N)[C@@H](O[C@H]2O[C@H](CN)[C@@H](O)[C@H](O)[C@H]2O)[C@H](O)[C@H]1O[C@H]1O[C@H](CO)[C@@H](O)[C@H](N)[C@H]1O [Amikacin] | 100 | 100 | 100 | 84 | Resistant | Resistant | 85 | 100 | Resistant | Resistant | – | 100
5 | CO/N=C(\C(=O)N[C@@H]1C(=O)N2C(C(=O)[O-])=C(C[N+]3(C)CCCC3)CS[C@H]12)c1csc(N)n1 [Cefepime] | 100 | 100 | 100 | 49 | – | – | 54 | 0 | – | – | – | 100
6 | C[C@H]1COc2c(N3CCN(C)CC3)c(F)cc3c(=O)c(C(=O)O)cn1c23 [Levofloxacin] | 100 | 100 | 100 | 86 | Susceptible | Susceptible | 83 | 100 | Susceptible | Susceptible | – | 100
7 | CO/N=C(\C(=O)N[C@@H]1C(=O)N2C(C(=O)O)=C(COC(C)=O)CS[C@H]12)c1csc(N)n1 [Cefotaxime] | 100 | 100 | 100 | 60 | Resistant | Resistant | 64 | 0 | Resistant | Resistant | – | 100
8 | C[C@@H](O)[C@H]1C(=O)N2C(C(=O)O)=C(SCCN=CN)C[C@H]12 [Imipenem] | 100 | 100 | 100 | 84 | Resistant | Resistant | 77 | 100 | – | – | – | 100
